In one experiment the test system is blueing fungi. To be noted: J. A. Drysdale et al., New Zealand Journal of Forestry Science 1982; cited from earlier work.
Another experiment concerns Trichurus spiralis. Briefly: MIC on nutrient agar media against soft-rot pathogen. It is filed as cell-based. As to the method: (§1) The synergism was then determined using the method described by Kull et al. (F. C. Kull, P. C. Eismann, H. D. Sylvestrowicz, R. L. Mayer, Applied Microbiology 9, 538 to 541, 1961). Here, the following relationships apply:
(§2) Qa=concentration of substance A which corresponds to the MIC
(§3) Qb=concentration of substance B which corresponds to the MIC
(§4) QA=concentration of substance A in the concentration of A/B which suppresses microbial growth
(§5) QB=concentration of substance B in the concentration of A/B which suppresses microbial growth
(§6) SI=1 means the activities are additive
Various concentrations of prochloraz (A), tebuconazole (B) and mixtures of the two active compounds mentioned (AB) were tested against the soft-rot pathogen Trichurus spiralis on nutrient agar media. The minimum inhibitory concentration (MIC) refers to the value of the active compound or the active compound mixture in question where no growth could be observed.

For a further experiment, the system named is Coriolus versicolor. Briefly: MIC, radial hyphal growth on malt extract peptone nutrient agar. The format is cell-based. To be noted: Trametes versicolor. How it is done:
as §1, §2, §3, §4, §5, §6
Various concentrations of prochloraz (A), tebuconazole (B) and mixtures (AB) of the two active compounds mentioned were tested against the wood-destroying Basidiomycetes Coriolus versicolor. Mycelium pieces were punched out of a colony of the wood-destroying organism and incubated at 26° C. on a nutrient agar which contained malt extract peptone. The radial growth of the hypha with and without added active compound was then compared. The minimum inhibitory concentration (MIC) stated below is the lowest concentration of active compound at which the radial growth is suppressed completely.

Experiment [1] has as its system microorganisms in biologically active soil. The experiment can be described thus: Soil burial of treated cotton sailcloth (DIN ENV 807), tear resistance. To be noted: cloth drenched with 800 ppm single active compound in ethanol; 4 weeks in biologically active soil. How it is done:
Untreated cotton sailcloth consisting of cellulose (500 g/m^2) was drenched with a solution of 800 ppm of prochloraz (A) and 800 ppm of tebuconazole (B) and a mixture (AB) comprising 200 ppm of prochloraz and 200 ppm of tebuconazole in ethanol. The samples were dried at 23° C. and 50% relative atmospheric humidity for 7 days and incorporated into biologically active soil according to DIN ENV 807. After 4 weeks, tear resistance of the cotton cloth was determined as a measure for the protection against destruction by microorganisms achieved by the active compounds.

As usually defined, the MIC is the smallest concentration in the dilution series that meets the test's criterion for growth inhibition.

Read-outs that look alike come from different tables or passages of the source.

With `CCCN(CCOc1c(Cl)cc(Cl)cc1Cl)C(=O)n1ccnc1` [A, N-propyl-N-[2-(2,4,6-trichlorophenoxy)ethyl]imidazole-1-carboxamide], in the experiment with blueing fungi, the “activity against blueing fungi” value is reported as “insufficiently active”. Further, the MIC in the experiment on Trichurus spiralis is 5 µg/mL; in the experiment with Coriolus versicolor it was 6 µg/mL. The “tear resistance of the cotton cloth” value in experiment [1] is recorded as “easy to tear”.

For `CC(C)(C)C(O)(CCc1ccc(Cl)cc1)Cn1cncn1` (stereo not shown) [B, tebuconazole], the MIC amounted to 200 µg/mL in the experiment with Trichurus spiralis (nutrient agar, concentration where no growth could be observed, read-out: MIC) and 0.3 µg/mL with Coriolus versicolor (Coriolus versicolor, 26° C., malt extract peptone agar, lowest concentration at which radial growth is suppressed completely, read-out: MIC). In experiment [1], the “tear resistance of the cotton cloth” value is “easy to tear”.
